{
  "source": "paper PMC8460406",
  "about": "“PET/CT imaging of head-and-neck and pancreatic cancer in humans by targeting the “Cancer Integrin” αvβ6 with Ga-68-Trivehexin” (European Journal of Nuclear Medicine and Molecular Imaging, 2021)",
  "key": {"[1]": {"molecular_target": "αvβ8-integrin (Homo sapiens, UniProt P06756+P26012)", "sequence (P06756 31-992 limits assumed)": "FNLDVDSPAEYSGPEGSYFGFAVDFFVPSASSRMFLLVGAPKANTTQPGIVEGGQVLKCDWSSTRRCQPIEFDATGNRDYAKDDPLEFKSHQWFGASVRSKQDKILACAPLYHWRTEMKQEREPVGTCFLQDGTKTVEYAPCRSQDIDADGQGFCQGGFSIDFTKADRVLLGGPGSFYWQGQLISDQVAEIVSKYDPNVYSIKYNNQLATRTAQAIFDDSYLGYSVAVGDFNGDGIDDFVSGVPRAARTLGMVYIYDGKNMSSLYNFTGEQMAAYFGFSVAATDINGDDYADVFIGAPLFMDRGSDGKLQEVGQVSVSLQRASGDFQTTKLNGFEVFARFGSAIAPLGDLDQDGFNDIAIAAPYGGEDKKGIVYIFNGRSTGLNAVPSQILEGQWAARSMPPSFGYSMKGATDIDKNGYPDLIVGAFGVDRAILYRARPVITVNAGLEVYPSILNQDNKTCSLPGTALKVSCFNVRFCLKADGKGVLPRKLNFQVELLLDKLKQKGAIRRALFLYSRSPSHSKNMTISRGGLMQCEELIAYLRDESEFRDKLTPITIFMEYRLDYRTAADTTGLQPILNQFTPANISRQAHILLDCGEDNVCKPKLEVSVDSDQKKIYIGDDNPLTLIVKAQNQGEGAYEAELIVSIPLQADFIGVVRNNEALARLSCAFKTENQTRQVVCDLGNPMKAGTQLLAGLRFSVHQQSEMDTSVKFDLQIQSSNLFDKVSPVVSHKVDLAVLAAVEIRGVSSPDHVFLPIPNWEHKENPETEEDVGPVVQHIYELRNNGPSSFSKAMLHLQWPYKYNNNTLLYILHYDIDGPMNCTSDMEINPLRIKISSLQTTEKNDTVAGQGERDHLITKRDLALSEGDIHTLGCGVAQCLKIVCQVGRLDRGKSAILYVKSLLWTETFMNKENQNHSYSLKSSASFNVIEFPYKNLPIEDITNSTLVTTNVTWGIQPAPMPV", "sequence (P26012 43-684 limits assumed)": "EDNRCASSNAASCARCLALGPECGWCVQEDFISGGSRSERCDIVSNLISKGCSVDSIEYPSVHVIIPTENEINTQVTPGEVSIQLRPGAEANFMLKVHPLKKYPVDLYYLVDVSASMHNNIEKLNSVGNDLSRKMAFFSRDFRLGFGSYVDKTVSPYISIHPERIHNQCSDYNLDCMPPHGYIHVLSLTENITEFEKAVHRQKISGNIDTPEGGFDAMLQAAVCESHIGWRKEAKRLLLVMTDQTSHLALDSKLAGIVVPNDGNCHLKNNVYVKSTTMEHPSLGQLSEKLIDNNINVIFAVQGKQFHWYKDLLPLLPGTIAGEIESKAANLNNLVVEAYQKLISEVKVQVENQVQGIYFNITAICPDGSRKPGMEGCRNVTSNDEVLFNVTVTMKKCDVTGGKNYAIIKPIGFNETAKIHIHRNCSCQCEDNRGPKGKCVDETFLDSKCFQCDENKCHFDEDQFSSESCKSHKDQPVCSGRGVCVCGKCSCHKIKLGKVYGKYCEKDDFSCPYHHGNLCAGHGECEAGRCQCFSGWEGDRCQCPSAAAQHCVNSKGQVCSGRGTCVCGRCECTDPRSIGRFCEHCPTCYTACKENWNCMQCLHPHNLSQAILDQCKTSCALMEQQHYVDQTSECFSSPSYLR", "assay": "ELISA on immobilized integrins (integrin affinity), αvβ8", "type": "binding", "settings": "for IC50: 95% confidence interval in parentheses; for αvβ6-selectivity over αvβ8: IC50-based factor", "from_the_text": "(§1) Materials, reagents, general procedures, and instrumentation used for chemical syntheses and analyses have been detailed elsewhere. In addition to what has been reported before, the building block TRAP(azide)3 was purchased from Fosfinos s.r.o. (Kladno, CZ). c[FGDLAFp(NMe)K(pentynoic amide)] and TRAP(AvB6)3 were synthesized according to the literature. Previously described protocols were followed for determination of integrin affinities by ELISA on immobilized integrins and for β6-integrin immunohistochemistry (IHC)."}, "[2]": {"molecular_target": "T1, αvβ6-integrin (Homo sapiens, UniProt P06756+P18564)", "T1 sequence (P06756 31-992 limits assumed)": "as the sequence (P06756 31-992 limits assumed) above", "T1 sequence (P18564 22-707 limits assumed)": "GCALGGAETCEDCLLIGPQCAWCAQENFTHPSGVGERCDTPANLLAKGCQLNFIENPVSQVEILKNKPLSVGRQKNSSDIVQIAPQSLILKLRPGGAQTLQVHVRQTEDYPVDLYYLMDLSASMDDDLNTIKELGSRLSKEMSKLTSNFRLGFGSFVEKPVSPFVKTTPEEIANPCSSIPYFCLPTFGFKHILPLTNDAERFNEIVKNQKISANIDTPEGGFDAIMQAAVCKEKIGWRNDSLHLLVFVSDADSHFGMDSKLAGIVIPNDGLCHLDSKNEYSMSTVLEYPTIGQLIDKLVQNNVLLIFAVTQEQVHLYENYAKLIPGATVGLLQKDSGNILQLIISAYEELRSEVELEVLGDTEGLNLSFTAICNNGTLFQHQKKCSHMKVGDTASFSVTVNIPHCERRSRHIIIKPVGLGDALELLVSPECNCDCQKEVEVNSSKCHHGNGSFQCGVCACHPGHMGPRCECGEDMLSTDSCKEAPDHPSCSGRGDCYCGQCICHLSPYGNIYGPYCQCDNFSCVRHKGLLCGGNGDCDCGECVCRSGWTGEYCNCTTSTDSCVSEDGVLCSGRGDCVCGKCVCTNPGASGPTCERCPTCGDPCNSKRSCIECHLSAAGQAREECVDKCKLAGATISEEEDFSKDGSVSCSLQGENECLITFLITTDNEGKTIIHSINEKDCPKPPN", "assay": "ELISA on immobilized integrins (integrin affinity), αvβ6", "type": "binding", "settings": "95% confidence interval in parentheses", "from_the_text": "as §1"}, "[3]": {"molecular_target": "αvβ3-integrin (Homo sapiens, UniProt P05106+P06756)", "assay": "ELISA on immobilized integrins (integrin affinity), αvβ3", "type": "binding", "settings": "for IC50: 95% confidence interval in parentheses; for αvβ6-selectivity over αvβ3: IC50-based factor", "from_the_text": "as §1"}, "[4]": {"molecular_target": "α5β1-integrin (Homo sapiens, UniProt P05556+P08648)", "sequence (P08648 42-995 limits assumed)": "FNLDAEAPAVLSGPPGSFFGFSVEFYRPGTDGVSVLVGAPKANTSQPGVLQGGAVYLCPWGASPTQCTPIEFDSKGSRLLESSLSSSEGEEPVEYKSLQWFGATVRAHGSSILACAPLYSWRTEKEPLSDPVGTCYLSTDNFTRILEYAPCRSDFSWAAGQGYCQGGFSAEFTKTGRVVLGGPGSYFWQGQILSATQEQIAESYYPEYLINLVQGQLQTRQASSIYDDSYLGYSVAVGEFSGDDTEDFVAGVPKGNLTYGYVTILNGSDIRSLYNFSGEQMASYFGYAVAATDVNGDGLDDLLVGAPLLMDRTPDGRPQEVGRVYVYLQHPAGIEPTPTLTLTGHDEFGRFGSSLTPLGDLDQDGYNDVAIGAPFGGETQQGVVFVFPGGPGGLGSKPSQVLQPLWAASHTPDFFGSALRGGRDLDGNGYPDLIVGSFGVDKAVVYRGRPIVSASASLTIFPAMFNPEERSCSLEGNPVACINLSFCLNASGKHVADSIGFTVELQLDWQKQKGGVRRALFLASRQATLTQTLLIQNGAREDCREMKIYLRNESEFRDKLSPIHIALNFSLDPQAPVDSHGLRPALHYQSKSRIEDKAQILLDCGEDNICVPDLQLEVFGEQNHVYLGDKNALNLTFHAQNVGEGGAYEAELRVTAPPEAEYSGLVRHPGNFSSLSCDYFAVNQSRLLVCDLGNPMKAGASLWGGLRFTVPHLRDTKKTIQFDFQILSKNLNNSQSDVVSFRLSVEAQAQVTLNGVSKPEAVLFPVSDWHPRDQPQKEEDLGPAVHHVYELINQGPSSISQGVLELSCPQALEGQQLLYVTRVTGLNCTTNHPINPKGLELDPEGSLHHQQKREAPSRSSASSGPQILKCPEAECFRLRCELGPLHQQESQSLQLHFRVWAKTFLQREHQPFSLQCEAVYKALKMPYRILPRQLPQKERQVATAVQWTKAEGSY", "sequence (P05556 21-728 limits assumed)": "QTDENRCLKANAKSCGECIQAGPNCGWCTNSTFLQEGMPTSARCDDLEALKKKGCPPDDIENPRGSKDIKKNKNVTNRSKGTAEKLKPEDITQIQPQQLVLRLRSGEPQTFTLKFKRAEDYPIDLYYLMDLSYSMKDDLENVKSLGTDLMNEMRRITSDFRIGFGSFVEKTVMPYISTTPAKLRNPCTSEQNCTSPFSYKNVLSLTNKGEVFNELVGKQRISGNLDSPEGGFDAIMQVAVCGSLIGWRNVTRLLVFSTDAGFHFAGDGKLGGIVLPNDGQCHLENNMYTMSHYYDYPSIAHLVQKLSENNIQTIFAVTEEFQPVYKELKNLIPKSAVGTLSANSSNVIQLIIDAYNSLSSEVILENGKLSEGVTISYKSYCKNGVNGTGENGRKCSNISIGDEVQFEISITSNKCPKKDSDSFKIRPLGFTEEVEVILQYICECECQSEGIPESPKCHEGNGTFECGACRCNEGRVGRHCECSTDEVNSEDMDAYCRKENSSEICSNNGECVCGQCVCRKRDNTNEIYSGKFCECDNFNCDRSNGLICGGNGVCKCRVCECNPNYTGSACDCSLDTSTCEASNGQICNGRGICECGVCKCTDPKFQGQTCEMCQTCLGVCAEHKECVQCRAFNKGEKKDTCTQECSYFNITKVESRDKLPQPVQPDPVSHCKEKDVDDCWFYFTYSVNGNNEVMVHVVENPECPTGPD", "assay": "ELISA on immobilized integrins (integrin affinity), α5β1", "type": "binding", "settings": "for αvβ6-selectivity over α5β1: IC50-based factor", "from_the_text": "as §1"}, "[5]": {"test_system": "αvβ6-integrin expressing carcinomas", "assay": "PET/CT imaging of carcinomas in human (HNSCC, parotideal adenocarcinoma, PDAC)", "type": "in vivo", "procedure": "All human participants provided written informed consent, also for publication of images, prior to the investigation. […] No significant changes in vital signs or the results of laboratory studies or electrocardiograms were observed. Data for a total of 4 human subjects were included in this report. The PET/CT for patient #1 was performed according to a previously published protocol, as was calculation of the dosimetric parameters.\nA panendoscopy and tracheostomy were carried out 4 weeks prior to the [^18F]FDG. The tumor was not suitable for surgical removal and a simultaneous radiochemotherapy was indicated.\nPatient #3 (Fig. 4C–E) was diagnosed with an adenocarcinoma (salivary duct carcinoma) in the right […] in 2019 and initially underwent total parotidectomy and unilateral neck dissection (pT2 pN1b [21/23] L1 V1 Pn1 R1). A post-resection and contralateral neck-dissection was performed 1 month later, followed by adjuvant radiation. In 2020 the patient developed prelaryngeal and lateral orbita angle metastases, which were resected and adjuvantly irradiated. […] Since no further tumor manifestations were present in both examinations, surgical resection was indicated and performed. β6-integrin IHC [21] was done for specimen of the excised metastasis.\nPatient #4 was diagnosed with a carcinoma of the pancreatic head by endosonography and CT morphology. Pancreatic adenocarcinoma was verified by biopsy. […] According to this finding, surgical treatment was rejected and a chemotherapy regimen was started."}, "[6]": {"molecular_target": "T1, αvβ6-integrin", "settings": "cited from earlier work"}, "[7]": {"type": "physicochemical", "settings": "pH 7.4", "from_the_text": "Radiolabeling for preclinical experiments and determination of n-octanol–PBS distribution coefficients (log D7.4) was done as described. Applying this protocol, 5 nmol (0.5 nmol for cellular assays in order to maximize molar activity) of TRAP(AvB6)3 or Trivehexin were labeled with ^68 Ga at pH 2, resulting in RCY > 95%. The purity of the radiolabeled compounds was confirmed by radio-TLC, using silica impregnated glass fiber chromatography paper (ITLC® by Agilent) as stationary phase and 0.1 M aq. sodium citrate as mobile phase (purities were > 99%)."}, "[8]": {"assay": "in vivo", "settings": "SCID, mouse, total radioactivity", "from_the_text": "All animal experiments were approved by the responsible authority (Regierung von Oberbayern) and have been performed in accordance with general animal welfare regulations in Germany and the institutional guidelines for the care and use of animals. Keeping of the animals, generation of subcutaneous H2009 and MDA-MB-231 tumor xenografts, ex-vivo biodistribution studies, and µPET imaging were done according to previously described protocols. Multiplicity of PET and biodistribution studies ranged from 3 to 5; animal numbers for each individual experiment are denoted in the respective data tables in the Supporting Information and, additionally, in the Results section."}, "[9]": {"settings": "ref [34], read-out: IC50 (αvβ6-integrin affinity)"}},
  "note": "Read-outs that look alike come from different tables or passages of the source.",
  "data": [
    {"compound": "C#CCCC(=O)NCCCC[C@H]1C(=O)N[C@@H](Cc2ccc(O)cc2)C(=O)N[C@@H](CCCNC(=N)N)C(=O)NCC(=O)N[C@@H](CC(=O)O)C(=O)N[C@@H](CC(C)C)C(=O)N[C@@H](C)C(=O)N[C@@H](Cc2ccc(O)cc2)C(=O)N2CCC[C@@H]2C(=O)N1C", "note": "[Tyr2-alkyne, c[YRGDLAYp(NMe)K(pentynoic amide)]]", "values": [
      {"measurement": "IC50", "setting": "[1]", "result": 26, "unit": "nM"},
      {"measurement": "αvβ6-selectivity over αvβ8", "setting": "[1]", "result": 31},
      {"measurement": "IC50", "setting": "[2]", "result": 0.84, "unit": "nM"},
      {"measurement": "IC50", "setting": "[3]", "result": 219, "unit": "nM"},
      {"measurement": "αvβ6-selectivity over αvβ3", "setting": "[3]", "result": 261},
      {"measurement": "IC50", "setting": "[4]; 95% confidence interval in parentheses", "result": 150, "unit": "nM"},
      {"measurement": "αvβ6-selectivity over α5β1", "setting": "[4]", "result": 179}
    ]},
    {"compound": "C#CCCC(=O)NCCCC[C@H]1C(=O)N[C@@H](Cc2ccccc2)C(=O)N[C@@H](CCCNC(=N)N)C(=O)NCC(=O)N[C@@H](CC(=O)O)C(=O)N[C@@H](CC(C)C)C(=O)N[C@@H](C)C(=O)N[C@@H](Cc2ccccc2)C(=O)N2CCC[C@@H]2C(=O)N1C", "note": "[c[FRGDLAFp(NMe)K(pentynoic amide)], reference compound]", "values": [
      {"measurement": "IC50", "setting": "[1]", "result": 32, "unit": "nM"},
      {"measurement": "αvβ6-selectivity over αvβ8", "setting": "[1]", "result": 188},
      {"measurement": "IC50", "setting": "[2]", "result": 0.17, "unit": "nM"},
      {"measurement": "IC50", "setting": "[3]", "result": 424, "unit": "nM"},
      {"measurement": "αvβ6-selectivity over αvβ3", "setting": "[3]", "result": 2494},
      {"measurement": "αvβ6-selectivity over α5β1", "setting": "[4]", "result": 1329}
    ]},
    {"compound": "OC[C@H]1OC(O)[C@H]([18F])[C@@H](O)[C@@H]1O", "note": "(some centres unmarked) [[^18F]FDG]", "values": [
      {"measurement": "SUVmax around 7-week-old tracheostoma (inflammation)", "setting": "[5]; patient #2, 61-62 min p.i.", "result": 10.2},
      {"measurement": "SUVmax prelaryngeal cutaneous metastasis of parotideal adenocarcinoma", "setting": "[5]; patient #3, 67-71 min p.i.", "result": 6.1},
      {"measurement": "metabolic tumor volume", "setting": "[5]; patient #3, prelaryngeal cutaneous metastasis", "result": 2.2, "unit": "cm^3"}
    ]},
    {"compound": "c[FRGDLAYp(NMe)K] (FRGDLAYPK; HELM PEPTIDE1{F.R.G.D.L.A.Y.[dP].[meK]}$PEPTIDE1,PEPTIDE1,1:R1-9:R2$$$V2.0; SMILES CC(C)C[C@@H]1NC(=O)[C@H](CC(=O)O)NC(=O)CNC(=O)[C@H](CCCNC(=N)N)NC(=O)[C@H](Cc2ccccc2)NC(=O)[C@H](CCCCN)N(C)C(=O)[C@H]2CCCN2C(=O)[C@H](Cc2ccc(O)cc2)NC(=O)[C@H](C)NC1=O)", "values": [
      {"measurement": "IC50", "setting": "[6]; [9]", "result": 0.39, "unit": "nM"}
    ]},
    {"compound": "c[YRGDLAFp(NMe)K] (YRGDLAFPK; HELM PEPTIDE1{Y.R.G.D.L.A.F.[dP].[meK]}$PEPTIDE1,PEPTIDE1,1:R1-9:R2$$$V2.0; SMILES CC(C)C[C@@H]1NC(=O)[C@H](CC(=O)O)NC(=O)CNC(=O)[C@H](CCCNC(=N)N)NC(=O)[C@H](Cc2ccc(O)cc2)NC(=O)[C@H](CCCCN)N(C)C(=O)[C@H]2CCCN2C(=O)[C@H](Cc2ccccc2)NC(=O)[C@H](C)NC1=O)", "values": [
      {"measurement": "IC50", "setting": "[6]; [9]", "result": 0.4, "unit": "nM"}
    ]},
    {"compound": "CC(C)C[C@@H]1NC(=O)[C@H](CC(=O)O)NC(=O)CNC(=O)[C@H](CCCNC(=N)N)NC(=O)[C@H](Cc2ccccc2)NC(=O)[C@H](CCCCNC(=O)CCc2cn(CCCNC(=O)CCP(=O)(O)CN3CCN(CP(=O)(O)CCC(=O)NCCCn4cc(CCC(=O)NCCCC[C@H]5C(=O)N[C@@H](Cc6ccccc6)C(=O)N[C@@H](CCCNC(=N)N)C(=O)NCC(=O)N[C@@H](CC(=O)O)C(=O)N[C@@H](CC(C)C)C(=O)N[C@@H](C)C(=O)N[C@@H](Cc6ccccc6)C(=O)N6CCC[C@@H]6C(=O)N5C)nn4)CCN(CP(=O)(O)CCC(=O)NCCCn4cc(CCC(=O)NCCCC[C@H]5C(=O)N[C@@H](Cc6ccccc6)C(=O)N[C@@H](CCCNC(=N)N)C(=O)NCC(=O)N[C@@H](CC(=O)O)C(=O)N[C@@H](CC(C)C)C(=O)N[C@@H](C)C(=O)N[C@@H](Cc6ccccc6)C(=O)N6CCC[C@@H]6C(=O)N5C)nn4)CC3)nn2)N(C)C(=O)[C@H]2CCCN2C(=O)[C@H](Cc2ccccc2)NC(=O)[C@H](C)NC1=O", "note": "[^68 Ga-TRAP(AvB6)3]", "values": [
      {"measurement": "IC50", "setting": "[6]; ref [17], read-out: αvβ6-integrin affinity", "result": 0.023, "unit": "nM"},
      {"measurement": "n-octanol-PBS distribution coefficient log D7.4", "setting": "[7]", "result": "− 1.5 ± 0.1"},
      {"measurement": "tissue to tissue ratio at 1.5 h", "setting": "[8]; tumor/organ ratio Adrenals", "result": 3.7},
      {"measurement": "tissue to tissue ratio at 1.5 h", "setting": "[8]; tumor/organ ratio Blood", "result": 2.2},
      {"measurement": "tissue to tissue ratio at 1.5 h", "setting": "[8]; tumor/organ ratio Heart (myocard)", "result": 4.2},
      {"measurement": "tissue to tissue ratio at 1.5 h", "setting": "[8]; tumor/organ ratio Kidneys", "result": 0.1},
      {"measurement": "tissue to tissue ratio at 1.5 h", "setting": "[8]; tumor/organ ratio Large intestine (empty)", "result": 1.6},
      {"measurement": "tissue to tissue ratio at 1.5 h", "setting": "[8]; tumor/organ ratio Liver", "result": 1.2},
      {"measurement": "tissue to tissue ratio at 1.5 h", "setting": "[8]; tumor/organ ratio Lung", "result": 0.6},
      {"measurement": "tissue to tissue ratio at 1.5 h", "setting": "[8]; tumor/organ ratio Muscle", "result": 8.1},
      {"measurement": "tissue to tissue ratio at 1.5 h", "setting": "[8]; tumor/organ ratio Pancreas", "result": 10.1},
      {"measurement": "tissue to tissue ratio at 1.5 h", "setting": "[8]; tumor/organ ratio Small intestine (empty)", "result": 2.2},
      {"measurement": "tissue to tissue ratio at 1.5 h", "setting": "[8]; tumor/organ ratio Spleen", "result": 1.7},
      {"measurement": "tissue to tissue ratio at 1.5 h", "setting": "[8]; tumor/organ ratio Stomach (empty)", "result": 0.9}
    ]}
  ]
}
